Experimental data published in PubChem BioAssay AID1259407 (Chemical Carcinogenesis Research Information System (CCRIS), 2018).
The source made the active and inactive calls. How the calls were made is not given here.

Test system: CCRIS mutagenicity, Ames/micronucleus/aberration tests
Test: CCRIS mutagenicity studies
Conditions: Test System: AMES SALMONELLA TYPHIMURIUM
[1] = Strain/Indicator: TA98, Metabolic Activation: NONE, Method: PREINCUBATION
[2] = Strain/Indicator: TA98, Metabolic Activation: NONE, Method: STANDARD PLATE
[3] = Strain/Indicator: TA100, Metabolic Activation: NONE, Method: PREINCUBATION
[4] = Strain/Indicator: TA100, Metabolic Activation: NONE, Method: STANDARD PLATE
[5] = Strain/Indicator: TA98, Metabolic Activation: S-9, Method: STANDARD PLATE
[6] = Strain/Indicator: TA100, Metabolic Activation: S-9, Method: STANDARD PLATE
[7] = Strain/Indicator: TA98, Metabolic Activation: RAT, LIVER, S-9, AROCLOR 1254, Method: STANDARD PLATE
[8] = Strain/Indicator: TA1537, Metabolic Activation: NONE, Method: STANDARD PLATE

Compound: O=[N+]([O-])c1ccc2c(c1)oc1ccccc12
- mutagenic call (Strain/Indicator: TA98(1,8-DNP6), Metabolic Activation: NONE, Method: PREINCUBATION): active; positive
- mutagenic call (Strain/Indicator: TA98(1,8-DNP6), Metabolic Activation: NONE, Method: SUSPENSION): active; positive
- mutagenic call (Strain/Indicator: TA98(1,8-DNP6), Metabolic Activation: RAT, LIVER, S-9, PCB (5%), Method: PREINCUBATION): active; positive
- mutagenic call (Strain/Indicator: TA98(NR), Metabolic Activation: NONE, Method: PREINCUBATION): active; positive
- mutagenic call (Strain/Indicator: TA98(NR), Metabolic Activation: NONE, Method: SUSPENSION): active; positive
- mutagenic call (Strain/Indicator: TA98(NR), Metabolic Activation: RAT, LIVER, S-9 (10%), Method: PREINCUBATION): active; positive
- mutagenic call (Strain/Indicator: TA98(NR), Metabolic Activation: RAT, LIVER, S-9, 3-METHYLCHOLANTHRENE (10%), Method: PREINCUBATION): active; positive
- mutagenic call (Strain/Indicator: TA98(NR), Metabolic Activation: RAT, LIVER, S-9, BETA-NAPHTHOFLAVONE (10%), Method: PREINCUBATION): active; positive
- mutagenic call (Strain/Indicator: TA98(NR), Metabolic Activation: RAT, LIVER, S-9, PCB (5%), Method: PREINCUBATION): active; positive
- mutagenic call (Strain/Indicator: TA98(NR), Metabolic Activation: RAT, LIVER, S-9, PCB (10%), Method: PREINCUBATION): active; positive
- mutagenic call (Strain/Indicator: TA98(NR), Metabolic Activation: RAT, LIVER, S-9, PHENOBARBITAL (10%), Method: PREINCUBATION): active; positive
- mutagenic call [1]: active; positive
- mutagenic call [2]: active; positive
- mutagenic call (Strain/Indicator: TA98, Metabolic Activation: NONE, Method: SUSPENSION): active; positive
- mutagenic call (Strain/Indicator: TA98, Metabolic Activation: RAT, LIVER, S-9, PCB (5%), Method: PREINCUBATION): active; positive
- mutagenic call (Strain/Indicator: TA98, Metabolic Activation: RAT, LIVER, S-9, PCB, Method: SUSPENSION): active; positive
- mutagenic call (Strain/Indicator: TA98, Metabolic Activation: S-9, PHENOBARBITAL AND 5,6-BENZOFLAVONE, Method: STANDARD PLATE): active; positive
- mutagenic call [3]: inactive; negative
- mutagenic call [4]: active; positive
- mutagenic call (Strain/Indicator: TA100, Metabolic Activation: NONE, Method: SUSPENSION): active; positive
- mutagenic call (Strain/Indicator: TA100, Metabolic Activation: RAT, LIVER, S-9, PCB (5%), Method: PREINCUBATION): inactive; negative
- mutagenic call (Strain/Indicator: TA100, Metabolic Activation: RAT, LIVER, S-9, PCB, Method: SUSPENSION): inactive; negative
- mutagenic call (Strain/Indicator: TA100, Metabolic Activation: S-9, PHENOBARBITAL AND 5,6-BENZOFLAVONE, Method: STANDARD PLATE): active; positive

Compound: c1ccc(CN2C3c4ccccc4-c4ccccc4C32)cc1 (stereo unspecified)
- mutagenic call [4]: active; positive

Compound: CC[C@@H](CO)NCCN[C@@H](CC)CO
- mutagenic call [2]: inactive; negative
- mutagenic call [5]: inactive; negative
- mutagenic call [4]: inactive; negative
- mutagenic call [6]: inactive; negative

Compound: O=[N+]([O-])c1ccc2c3c4c(cccc4c4ccccc4c13)C1OC21 (stereo unspecified)
- mutagenic call (Strain/Indicator: TA98(1,8-DNP6), Metabolic Activation: NONE, Method: STANDARD PLATE): inactive; negative
- mutagenic call (Strain/Indicator: TA98(1,8-DNP6), Metabolic Activation: RAT, LIVER, S-9, AROCLOR 1254, Method: STANDARD PLATE): inactive; negative
- mutagenic call (Strain/Indicator: TA98(NR), Metabolic Activation: NONE, Method: STANDARD PLATE): inactive; negative
- mutagenic call (Strain/Indicator: TA98(NR), Metabolic Activation: RAT, LIVER, S-9, AROCLOR 1254, Method: STANDARD PLATE): inactive; negative
- mutagenic call [2]: active; positive
- mutagenic call [7]: active; positive

Compound: Cc1cc(C)c2cc(C)c(N)cc2n1
- mutagenic call (Strain/Indicator: TA98, Method: STANDARD PLATE): active; positive

Compound: C1COCCOCCOCCOCCOCCOCCO1
- mutagenic call [2]: inactive; negative
- mutagenic call [7]: inactive; negative
- mutagenic call [4]: inactive; negative
- mutagenic call (Strain/Indicator: TA100, Metabolic Activation: RAT, LIVER, S-9, AROCLOR 1254, Method: STANDARD PLATE): inactive; negative
- mutagenic call (Strain/Indicator: TA1530, Metabolic Activation: NONE, Method: STANDARD PLATE): inactive; negative
- mutagenic call (Strain/Indicator: TA1530, Metabolic Activation: RAT, LIVER, S-9, AROCLOR 1254, Method: STANDARD PLATE): inactive; negative
- mutagenic call [8]: inactive; negative
- mutagenic call (Strain/Indicator: TA1537, Metabolic Activation: RAT, LIVER, S-9, AROCLOR 1254, Method: STANDARD PLATE): inactive; negative

Compound: CCCCN(C[C@@H](CO)OCc1ccccc1)N=O
- mutagenic call [3]: active; positive
- mutagenic call (Strain/Indicator: TA100, Metabolic Activation: RAT, LIVER, S-9, PCB, Method: PREINCUBATION): active; positive

Compound: CC1=C(C)C2(C3=CC(=O)C=CC3=Nc3ccc(O)cc32)C(C)=C(C)C1=O
- mutagenic call (Strain/Indicator: TA1538, Metabolic Activation: NONE, Method: STANDARD PLATE): inactive; negative
- mutagenic call (Strain/Indicator: TA1538, Metabolic Activation: RAT, LIVER, S-9, AROCLOR 1254, Method: STANDARD PLATE): inactive; negative

Compound: COC(=O)c1cc(OC)c2c(c1-c1c(C(=O)OC)cc(OC)c3c1OCO3)OCO2
- mutagenic call [2]: inactive; negative
- mutagenic call [5]: inactive; negative
- mutagenic call [4]: inactive; negative
- mutagenic call [6]: inactive; negative
- mutagenic call (Strain/Indicator: TA1535, Metabolic Activation: NONE, Method: STANDARD PLATE): inactive; negative
- mutagenic call (Strain/Indicator: TA1535, Metabolic Activation: S-9, Method: STANDARD PLATE): inactive; negative
- mutagenic call [8]: inactive; negative
- mutagenic call (Strain/Indicator: TA1537, Metabolic Activation: S-9, Method: STANDARD PLATE): inactive; negative

Compound: CCOC(=O)/C=C/c1ccc([N+](=O)[O-])o1
- mutagenic call [1]: active; positive
